Reference: US8338089B2, “Method of inhibiting lentiviral infectivity utilizing zinc chelation to inhibit Vif activity” (The Johns Hopkins University, priority 2006, dated 2012)
Values joined by “and” are separate entries in the source; they are usually repeats but may differ in a detail not shown here. Identical values can stand only once.

How the values were obtained:
[1] = system: lentivirus; assay: Inhibition in a method of the invention (lentiviral infectivity)
[2] = molecular target: T1, HIV-1 Vif-Cul5 interaction (Human immunodeficiency virus type 1 group M subtype B, UniProt P69723); assay: Vif-HA immunoprecipitation and immunoblot for Cul5, ElonginB, ElonginC in Vif-expressing 293T cells; assay type: cell-based
T1 construct: expressed in transfected cells; host or cells: 293T
Experimental: The Cul5-Vif E3 ubiquitin ligase binds A3G and brings it in close proximity with the E2 ubiquitin conjugating enzyme. Polyubiquitinated A3G is recognized by the proteasome and subsequently degraded. […] 293T cells were transfected with Vif-HA expression vectors as previously described and treated with the indicated amounts of TPEN. Vif-HA was immunoprecipitated and eluted materials were then analyzed by SDS-PAGE and immunoblotting for Cul5, Vif-HA, ElonginB, and ElonginC. […] 293T cells were transfected with Vif-HA and treated with the indicated amounts of TPEN. Cell lysates were harvested and analyzed by SDS-PAGE and immunoblotting for Cul5 and Vif-HA.
(§1) Medium was removed 12 h prior to harvesting cells and replaced with either fresh medium alone or medium containing the indicated concentration of TPEN (Sigma). After a 12-h incubation, the cells were harvested for immunoprecipitation and immunoblot analysis, or the medium was collected for MAGI assay.
Transfected 293T cells were harvested, washed twice with cold PBS, and lysed in lysis buffer (50 mM Tris, pH 7.5, with 150 mM NaCl, 1% Triton X-100, and complete protease inhibitor cocktail tablets) at 4° C. for 1 h, then centrifuged at 10,000×g for 30 min. For myc-tag immunoprecipitation, precleared cell lysates were mixed with anti-myc antibody (Upstate) and incubated with protein G at 4° C. for 3 h. For HA tag immunoprecipitation, precleared cell lysates were mixed with anti-HA antibody-conjugated agarose beads (Roche) and incubated at 4° C. for 3 h. Samples were then washed three times with washing buffer (20 mM Tris, pH 7.5, with 100 mM NaCl, 0.1 mM EDTA, and 0.05% Tween-20). The beads were eluted with elution buffer (0.1 M glycine-HCl, pH 2.0) or 2× loading buffer. The eluted materials were then analyzed by SDS-PAGE and immunoblotting as previously described (Yu et al. (2003) (supra)).

[3] = system: SIVagm Vif-Cul5 interaction; assay: SIVagm Vif immunoprecipitation and immunoblot in 293T cells; assay type: cell-based; details: 4 μM TPEN vs vehicle DMSO
Experimental: (§2) Hydrophobic residues are represented by a Phi (Φ). […] 293T cells were transfected with the indicated SIV Vif expression vectors and treated with 4 μM TPEN. Cell lysates were immunoprecipitated and analyzed by SDS-PAGE followed immunoblotting for Cul5, HA, ElonginB, and ElonginC. […] 293T cells were transfected with SOCS-3-HA and treated with 4 μM TPEN. Cell lysates were immunoprecipitated and analyzed by SDS-PAGE and immunoblotting.
as §1
(§3) Transfected 293T cells were harvested, washed twice with cold PBS, and lysed in lysis buffer (50 mM Tris, pH 7.5, with 150 mM NaCl, 1% Triton X-100, and complete protease inhibitor cocktail tablets) at 4° C. for 1 h, then centrifuged at 10,000×g for 30 min. For myc-tag immunoprecipitation, precleared cell lysates were mixed with anti-myc antibody (Upstate) and incubated with protein G at 4° C. for 3 h. […] The eluted materials were then analyzed by SDS-PAGE and immunoblotting as previously described (Yu et al. (2003) (supra)). […]

[4] = system: SIVsyk Vif-Cul5 interaction; assay: SIVsyk Vif immunoprecipitation and immunoblot in 293T cells; assay type: cell-based; details: 4 μM TPEN vs vehicle DMSO
Experimental: as §2, §1, §3

[5] = molecular target: T2, Cul5-SOCS-3 E3 ligase (Homo sapiens, UniProt O14543); assay: SOCS-3-HA immunoprecipitation and immunoblot in 293T cells; assay type: cell-based; details: 4 μM TPEN vs control DMSO
T2 construct: expressed in transfected cells; host or cells: 293T
T2 sequence (O14543 1-225): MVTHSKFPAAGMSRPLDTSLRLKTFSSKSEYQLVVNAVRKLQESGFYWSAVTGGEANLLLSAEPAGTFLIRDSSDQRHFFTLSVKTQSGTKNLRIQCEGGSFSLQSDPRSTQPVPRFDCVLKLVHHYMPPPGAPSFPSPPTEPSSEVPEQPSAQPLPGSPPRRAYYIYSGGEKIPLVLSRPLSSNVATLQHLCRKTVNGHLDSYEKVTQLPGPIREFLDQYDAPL
Experimental: as §2, §1, §3

[6] = system: HIV-1 Vif mediated A3G degradation; assay: Vif mediated A3G degradation in transfected 293T cells (immunoblot); assay type: cell-based
Experimental: (§4) 293T cells were transfected with the indicated plasmids in the presence of 4 μM TPEN or control vehicle. Cell lysates were analyzed for A3G degradation by SDS-PAGE followed by immunoblotting for A3G-HA, Vif-myc, and ribosomal p19 as a loading control. […] 293T cells were transfected with the indicated plasmids and treated with […] TPEN or control vehicle. Vif-HA was immunoprecipitated from prepared lysates. Lysates were analyzed by SDS-PAGE followed by immunoblotting for Vif-HA and A3G-myc. […] Cells were infected with WT or ΔVif NL4-3 virus in the presence of A3G-myc and treated with 4 μM TPEN or DMSO. Cells were harvested and virus was isolated from the supernatant by ultracentrifugation and analyzed by SDS PAGE and immunoblotting against Vif, myc, and p24. […] Adenovirus E4orf6 mediated p53 degradation is not affected by 4 μM TPEN. […] Cells were harvested and analyzed for p53 degradation by SDS-PAGE followed by immunoblotting for p53, E4orf6-myc, and ribosomal p19 as a loading control. […]
as §3, with “min.” for “min. For myc-tag immunoprecipitation, precleared cell lysates were mixed with anti-myc antibody (Upstate) and incubated with protein G at 4° C. for 3 h.”

[7] = molecular target: T3, Vif-A3G interaction (Human immunodeficiency virus type 1 group M subtype B, UniProt P69723); assay: Vif-A3G co-immunoprecipitation in 293T cells; assay type: cell-based, HIV-1; details: 4 μM TPEN vs control vehicle
T3 construct: expressed in transfected cells; host or cells: 293T
Experimental: as §4
as §3, with “min.” for “min. For myc-tag immunoprecipitation, precleared cell lysates were mixed with anti-myc antibody (Upstate) and incubated with protein G at 4° C. for 3 h.”

[8] = system: virion incorporation of A3G; assay: A3G levels in cells and virions, WT or ΔVif NL4-3 virus with A3G-myc; assay type: cell-based, HIV-1; details: 4 μM TPEN vs DMSO
Experimental: 293T cells were transfected with the indicated plasmids in the presence of 4 μM TPEN or control vehicle. Cell lysates were analyzed for A3G degradation by SDS-PAGE followed by immunoblotting for A3G-HA, Vif-myc, and ribosomal p19 as a loading control. […] 293T cells were transfected with the indicated plasmids and treated with […] TPEN or control vehicle. Vif-HA was immunoprecipitated from prepared lysates. Lysates were analyzed by SDS-PAGE followed by immunoblotting for Vif-HA and A3G-myc. […] Cells were infected with WT or ΔVif NL4-3 virus in the presence of A3G-myc and treated with 4 μM TPEN or DMSO. Cells were harvested and virus was isolated from the supernatant by ultracentrifugation and analyzed by SDS PAGE and immunoblotting against Vif, myc, and p24. […] Adenovirus E4orf6 mediated p53 degradation is not affected by 4 μM TPEN. 293T cells were transfected with p53 and E4orf6-myc expression vectors in the presence of 4 μM TPEN or control vehicle. Cells were harvested and analyzed for p53 degradation by SDS-PAGE followed by immunoblotting for p53, E4orf6-myc, and ribosomal p19 as a loading control.
Medium was removed 12 h prior to harvesting cells and replaced with either fresh medium alone or medium containing the indicated concentration of TPEN (Sigma). […]

[9] = system: Rbx function (E4orf6 mediated p53 degradation); assay: Adenovirus E4orf6 mediated p53 degradation in 293T cells (Rbx function); assay type: cell-based; details: 4 μM TPEN
Experimental: as §4
as §3, with “min.” for “min. For myc-tag immunoprecipitation, precleared cell lysates were mixed with anti-myc antibody (Upstate) and incubated with protein G at 4° C. for 3 h.”

[10] = system: NL4-3 virus infectivity in MAGI cells; assay: MAGI assay of virus infectivity, virus produced in 293T or 293T-A3G cells; assay type: cell-based, HIV-1
Experimental: MAGI cells were infected with wild-type or Vif deficient NL4-3 produced in the absence or presence of A3G and […] TPEN as indicated. Relative infectivity was calculated by setting wild type virus infectivity to 100% (lane 1).
293T and MAGI-CCR5 cells (Chackerian et al. (1997) J Virol 71, 3932-3939) were maintained and transfected or infected as previously described (Yu et al. (2003) (supra)). The MAGI assay was performed as described previously and the antibodies used in this study have been described: anti-HA antibody-agarose conjugate, anti-myc antibody-agarose conjugate, anti-Vif, anti-Elongin B, anti-Elongin C, anti-Myc, anti-HA, and anti-human ribosomal P antigens (Yu et al. (2003) (supra)). The anti-p53 mouse mAb was obtained from Oncogene Research Products (Cat. #OP03).
as §1
In order to assess the biological relevance of the zinc requirement in Vif-Cul5 interaction and assess whether A3G retained antiviral function in the presence of 7 μM TPEN, we studied the effect of TPEN on virus infectivity. MAGI cells were infected with wild type or Vif deficient virus produced in 293T or 293T-A3G cells in the presence of 7 μM TPEN or control DMSO. We set the infectivity of WT virus in the absence of A3G to 100%, and calculated the relative infectivity under all treated conditions (FIG. 4). As expected, in the presence of A3G and the absence of Vif, there was a drastic decrease of infectivity to 8% (FIG. 4, lane 4). However in the presence of Vif, A3G was neutralized resulting in 91% infectivity (FIG. 4, lane 3). One would expect zinc chelation to have an effect on virus infectivity independent of Vif function. We observed a modest decrease in infectivity, of about 15% even in the absence of A3G (FIG. 4, lanes, 5 and 6). […]

T1 sequence (Q15370 whole entry): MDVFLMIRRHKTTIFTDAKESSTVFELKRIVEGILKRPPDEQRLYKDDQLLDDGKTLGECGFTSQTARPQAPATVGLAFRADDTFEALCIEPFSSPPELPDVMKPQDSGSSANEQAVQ
T1 sequence (Q15369 whole entry, further chain): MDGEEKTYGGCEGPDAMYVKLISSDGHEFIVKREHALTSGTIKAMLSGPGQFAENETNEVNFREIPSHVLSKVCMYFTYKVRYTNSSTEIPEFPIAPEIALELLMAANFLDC
T1 sequence (Q13951 whole entry, further chain): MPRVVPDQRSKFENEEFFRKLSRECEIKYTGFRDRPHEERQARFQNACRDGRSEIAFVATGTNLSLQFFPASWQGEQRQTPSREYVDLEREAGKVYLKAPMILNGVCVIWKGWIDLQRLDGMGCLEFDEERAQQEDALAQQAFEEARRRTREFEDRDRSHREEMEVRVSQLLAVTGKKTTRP
T1 sequence (P69723 whole entry): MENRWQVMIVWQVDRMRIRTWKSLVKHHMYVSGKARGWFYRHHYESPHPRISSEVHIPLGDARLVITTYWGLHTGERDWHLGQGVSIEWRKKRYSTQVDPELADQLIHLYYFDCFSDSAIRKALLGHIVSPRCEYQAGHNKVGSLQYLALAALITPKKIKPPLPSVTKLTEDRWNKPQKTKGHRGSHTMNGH
T3 sequence (Q9HC16 whole entry): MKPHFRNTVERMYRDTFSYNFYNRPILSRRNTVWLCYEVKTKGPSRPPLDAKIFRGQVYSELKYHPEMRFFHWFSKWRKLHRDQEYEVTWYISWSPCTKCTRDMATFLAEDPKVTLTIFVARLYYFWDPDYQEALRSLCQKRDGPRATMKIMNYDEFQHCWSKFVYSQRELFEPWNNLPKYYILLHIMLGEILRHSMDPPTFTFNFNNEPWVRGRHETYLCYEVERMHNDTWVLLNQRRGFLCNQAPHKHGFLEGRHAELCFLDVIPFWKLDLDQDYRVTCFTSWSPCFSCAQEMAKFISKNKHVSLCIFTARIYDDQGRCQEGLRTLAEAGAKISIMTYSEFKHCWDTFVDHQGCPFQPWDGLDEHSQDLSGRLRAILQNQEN
T3 sequence (P69723 whole entry): as the sequence (P69723 whole entry) above
T3 sequence (Q13951 whole entry, further chain): as the sequence (Q13951 whole entry, further chain) above
T3 sequence (Q15369 whole entry, further chain): as the sequence (Q15369 whole entry, further chain) above
T3 sequence (Q15370 whole entry, further chain): as the sequence (Q15370 whole entry) above

Compound | effectiveness as inhibitor in a method of the invention [1] | effect on cellular Cul5 protein levels ([2]; 293T cells transfected with Vif-HA, cell lysates) | IC50 ([2]; IC50, decrease of Cul5-Vif interaction, Vif-expressing 293T cells, increasing concentrations of TPEN, 12-h incubation) | interaction of Vif with ElonginB and ElonginC ([2]; Vif-expressing 293T cells, increasing concentrations of TPEN) | Cul5 co-immunoprecipitation with SIVagm Vif [3] | ElonginB and ElonginC detected with SIVagm Vif [3] | Cul5 co-immunoprecipitation with SIVsyk Vif [4] | ElonginB and ElonginC detected with SIVsyk Vif [4] | interaction of SOCS-3 with Cul5 [5] | A3G expression or stability in the absence of HIV-1 Vif ([6]; 4 μM TPEN) | A3G degradation induced by HIV-1 Vif ([6]; 4 μM TPEN vs control vehicle) | effect on Vif-A3G interaction [7] | A3G incorporation into virions in the presence of Vif [8] | cellular A3G protein levels in the presence of Vif [8] | p53 levels in the presence of E4orf6 [9] | decrease in infectivity in the absence of A3G ([10]; 7 μM TPEN on producer cells, relative to WT virus without A3G = 100%) | infectivity loss in the presence of A3G and Vif ([10]; 7 μM TPEN on producer cells, relative to WT virus without A3G = 100%, 91% infectivity without TPEN) | effect on A3G function ([10]; 7 μM TPEN, FIG. 4 lanes 7 and 8)
Oc1ccc(O)c(Cl)c1 [Chloroquinol] | not an effective inhibitor |  |  |  |  |  |  |  |  |  |  |  |  |  |  |  |  | 
c1ccc(CN(CCN(Cc2ccccn2)Cc2ccccn2)Cc2ccccn2)nc1 [TPEN, N,N,N′,N′-Tetrakis-(2-pyridylmethyl)ethylenediamine] |  | did not have any effect | ~1.79 µM and 1.79 µM | remained constant | marked decrease | equal amounts | marked decrease | equal amounts | equal interaction | no effect | abolished | no effect | enhancing incorporation | increased | declined | about 15% | about 87% | no effect
